Where two headings read alike, the source gives them in different places.
Biological target: human serum albumin (HSA) (Homo sapiens, UniProt P02768)
Test: HSA refolding with ligand assistance (ED50 for refolding)
Procedure: Sodium caprate is added to Solution B to a final concentration of 10 mM. Solution B is held at 37° C. for 1-5 minutes.
Step C. […] Sodium caprate is added to Solution C to a final concentration of 10 mM. Solution C is held at 37° C. for a period of 30 minutes.

human serum albumin (HSA), sequence (P02768 25-609): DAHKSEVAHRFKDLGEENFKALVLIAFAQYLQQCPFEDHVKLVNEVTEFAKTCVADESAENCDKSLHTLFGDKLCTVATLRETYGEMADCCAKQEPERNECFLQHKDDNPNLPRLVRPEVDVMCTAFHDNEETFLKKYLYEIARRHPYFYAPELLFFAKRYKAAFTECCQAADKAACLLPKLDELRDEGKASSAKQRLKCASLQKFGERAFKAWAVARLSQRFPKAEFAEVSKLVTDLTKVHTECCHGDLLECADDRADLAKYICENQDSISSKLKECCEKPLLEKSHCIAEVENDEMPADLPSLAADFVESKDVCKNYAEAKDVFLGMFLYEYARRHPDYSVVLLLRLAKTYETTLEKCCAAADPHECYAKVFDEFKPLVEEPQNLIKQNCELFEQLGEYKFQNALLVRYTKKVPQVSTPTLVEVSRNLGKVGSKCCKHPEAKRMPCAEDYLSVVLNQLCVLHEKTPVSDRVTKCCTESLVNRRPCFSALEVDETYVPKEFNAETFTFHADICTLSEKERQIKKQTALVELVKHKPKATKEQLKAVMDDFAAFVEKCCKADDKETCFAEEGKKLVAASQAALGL

| EC50 | Optimal Concentration (refolding ligand) (Table 1) | Optimal Concentration (refolding ligand) | Structure (SMILES) |
| --- | --- | --- | --- |
| 800 µM | – | – | CCCCOC(=O)c1ccc(N)cc1 [n-butyl p-aminobenzoate] |
| 230 µM | – | 0.3 mM (saturated) | CCCCCCCCCCCCO [1-Dodecanol (C12), 1-Dodecanol] |
| – | 150 mM | – | CCCCCO [1-Pentanol (C5), 1-Pentanol] |
| – | 500 mM | – | CCCCO [1-Butanol (C4), 1-Butanol] |
| – | 25 mM | – | CCCCCCO [1-Hexanol (C6), 1-Hexanol] |
| 450 µM | 3 mM | – | CCCCCCCCO [1-Octanol (C8), 1-Octanol] |

| Structure (SMILES) | EC50 | Optimal Concentration (refolding ligand) (Table 1) | Optimal Concentration (refolding ligand) |
| --- | --- | --- | --- |
| CCCCCCCCCCO [1-Decanol (C10), 1-Decanol] | 300 µM | 3 mM | – |
| CCCCCC(=O)[O-].[Na+] [Na Caproate, sodium caproate] | – | >30 mM | – |
| CCCCCCCCCCCC(=O)[O-].[Na+] [Na Laurate, sodium laurate] | 45 µM | 1 mM | – |

Source: patent publication US20050209441A1, “Process for promoting proper folding of human serum albumin using a human serum albumin ligand” (priority 2004, published 2005)
